Test results published in ChEMBL document CHEMBL1201862, “PubChem BioAssay data set” (2004).
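Test compounds were applied to cells in 96-well plates for 48 hours at 5 doses. The concentration for 50% growth inhibition is given as GI50.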 The source made the active and inactive calls. No stated cut-off is given here; in the data, active = GI50 up to about 1.1 µM and inactive = higher.

Tests used:
Experiment in all cases: DTP human tumour cell line panel, 48 h
[1] = tested on: 786-0
[2] = tested on: A498
[3] = tested on: A549
[4] = tested on: ACHN
[5] = tested on: BT-549
[6] = tested on: CAKI-1
[7] = tested on: CCRF-CEM
[8] = tested on: COLO 205
[9] = tested on: DU-145
[10] = tested on: EKVX
[11] = tested on: HCC 2998
[12] = tested on: HCT-116
[13] = tested on: HCT-15
[14] = tested on: HL-60
[15] = tested on: HOP-62
[16] = tested on: HOP-92
[17] = tested on: HT-29
[18] = tested on: Hs-578T
[19] = tested on: IGROV-1
[20] = tested on: K562
[21] = tested on: KM12
[22] = tested on: LOX IMVI
[23] = tested on: M14
[24] = tested on: MCF7
[25] = tested on: MDA-MB-231
[26] = tested on: MDA-MB-435
[27] = tested on: MDA-N
[28] = tested on: MOLT-4
[29] = tested on: Malme-3M
[30] = tested on: NCI-H226
[31] = tested on: NCI-H23
[32] = tested on: NCI-H460
[33] = tested on: NCI-H522
[34] = tested on: NCI/ADR-RES
[35] = tested on: OVCAR-3
[36] = tested on: OVCAR-4
[37] = tested on: OVCAR-5
[38] = tested on: OVCAR-8
[39] = tested on: PC-3
[40] = tested on: RPMI-8226
[41] = tested on: RXF 393
[42] = tested on: SF-268
[43] = tested on: SF-295
[44] = tested on: SF-539
[45] = tested on: SK-MEL-28
[46] = tested on: SK-MEL-2
[47] = tested on: SK-MEL-5
[48] = tested on: SK-OV-3
[49] = tested on: SN12C
[50] = tested on: SNB-19
[51] = tested on: SNB-75
[52] = tested on: SR
[53] = tested on: SW-620
[54] = tested on: T47D
[55] = tested on: TK-10
[56] = tested on: U-251
[57] = tested on: UACC-257
[58] = tested on: UACC-62
[59] = tested on: UO-31

## O=c1c(-c2nc3ccccc3c3ccccc3c2=O)nc2ccccc2c2ccccc12
[1]
  GI50: 36 µM (inactive)
[2]
  GI50: 35.7 µM (inactive)
[3]
  GI50: 48 µM (inactive)
[4]
  GI50: 36.1 µM (inactive)
[5]
  GI50: 47.1 µM (inactive)
[6]
  GI50: 38.9 µM (inactive)
[7]
  GI50: 28.1 µM (inactive)
[8]
  GI50: 38.4 µM (inactive)
[9]
  GI50: 80.9 µM (inactive)
[10]
  GI50: 50.1 µM (inactive)
[11]
  GI50: 21.9 µM (inactive)
[12]
  GI50: 23.8 µM (inactive)
[13]
  GI50: 32.7 µM
[14]
  GI50: 20 µM (inactive)
[15]
  GI50: 34.8 µM (inactive)
[16]
  GI50: 37.1 µM (inactive)
[17]
  GI50: 43.5 µM (inactive)
[18]
  GI50: 51.4 µM (inactive)
[19]
  GI50: 44.9 µM (inactive)
[20]
  GI50: 32.9 µM (inactive)
[21]
  GI50: 38.3 µM (inactive)
[22]
  GI50: 32.1 µM (inactive)
[23]
  GI50: 35.2 µM (inactive)
[24]
  GI50: 38 µM (inactive)
[25]
  GI50: 34 µM (inactive)
[26]
  GI50: 29.2 µM (inactive)
[27]
  GI50: 24.3 µM (inactive)
[28]
  GI50: 34.6 µM (inactive)
[29]
  GI50: 76.6 µM (inactive)
[30]
  GI50: > 100 µM (inactive)
[31]
  GI50: 40 µM (inactive)
[32]
  GI50: 41.3 µM (inactive)
[33]
  GI50: 37.1 µM (inactive)
[34]
  GI50: 34 µM (inactive)
[35]
  GI50: 28.4 µM (inactive)
[36]
  GI50: 37.5 µM (inactive)
[37]
  GI50: 80.4 µM (inactive)
[38]
  GI50: 27.7 µM (inactive)
[39]
  GI50: 27.7 µM (inactive)
[40]
  GI50: 26.2 µM (inactive)
[41]
  GI50: 26.8 µM (inactive)
[42]
  GI50: 41 µM (inactive)
[43]
  GI50: 29.7 µM (inactive)
[44]
  GI50: 24.5 µM (inactive)
[45]
  GI50: 55.5 µM (inactive)
[46]
  GI50: 27.4 µM (inactive)
[47]
  GI50: 24.8 µM (inactive)
[48]
  GI50: > 100 µM (inactive)
[49]
  GI50: 28.6 µM (inactive)
[50]
  GI50: 30.3 µM (inactive)
[51]
  GI50: 32.1 µM (inactive)
[52]
  GI50: 21.9 µM (inactive)
[53]
  GI50: 33.7 µM (inactive)
[54]
  GI50: 32.6 µM (inactive)
[55]
  GI50: 48.4 µM (inactive)
[56]
  GI50: 22.2 µM (inactive)
[57]
  GI50: 33.8 µM (inactive)
[58]
  GI50: 30.2 µM (inactive)
[59]
  GI50: 90.2 µM (inactive)

## O=C(NC(Nc1ccc(F)cc1)(C(F)(F)F)C(F)(F)F)C(C(F)(F)F)C(F)(F)F
[1]
  GI50: > 54.1 µM (inactive)
[2]
  GI50: 62.2 µM (inactive)
[3]
  GI50: 5.53 µM (inactive)
[4]
  GI50: 1.71 µM (inactive)
[5]
  GI50: 18.7 µM (inactive)
[6]
  GI50: > 54.7 µM (inactive)
[7]
  GI50: 3.13 µM (inactive)
[8]
  GI50: 6.65 µM (inactive)
[9]
  GI50: 9.93 µM (inactive)
[10]
  GI50: 24.7 µM (inactive)
[11]
  GI50: 12 µM (inactive)
[12]
  GI50: 4.2 µM (inactive)
[13]
  GI50: 2.13 µM
[14]
  GI50: 1.04 µM (active)
[15]
  GI50: 99.1 µM (inactive)
[16]
  GI50: 51.3 µM (inactive)
[17]
  GI50: 15.5 µM (inactive)
[18]
  GI50: 20.4 µM (inactive)
[19]
  GI50: 7.62 µM (inactive)
[20]
  GI50: 0.401 µM (active)
[21]
  GI50: 0.908 µM (active)
[22]
  GI50: 0.617 µM (active)
[23]
  GI50: 0.402 µM (active)
[24]
  GI50: 16.7 µM (inactive)
[25]
  GI50: 52 µM (inactive)
[26]
  GI50: 1.13 µM (inactive)
[27]
  GI50: 9.84 µM (inactive)
[28]
  GI50: 4.86 µM (inactive)
[29]
  GI50: 48 µM (inactive)
[30]
  GI50: 50.5 µM (inactive)
[31]
  GI50: 18.1 µM (inactive)
[32]
  GI50: 7.98 µM (inactive)
[33]
  GI50: 13.2 µM (inactive)
[34]
  GI50: 4.46 µM (inactive)
[35]
  GI50: 44.3 µM (inactive)
[36]
  GI50: 5.52 µM (inactive)
[37]
  GI50: > 96.6 µM (inactive)
[38]
  GI50: 3.18 µM (inactive)
[39]
  GI50: 4.91 µM (inactive)
[40]
  GI50: 8.11 µM (inactive)
[41]
  GI50: 33.3 µM (inactive)
[42]
  GI50: 49.8 µM (inactive)
[43]
  GI50: 3.01 µM (inactive)
[44]
  GI50: 21.4 µM (inactive)
[45]
  GI50: 17.5 µM (inactive)
[46]
  GI50: 3.63 µM (inactive)
[47]
  GI50: 1.43 µM (inactive)
[48]
  GI50: 72.1 µM (inactive)
[49]
  GI50: 50.2 µM (inactive)
[50]
  GI50: 48.2 µM (inactive)
[51]
  GI50: 36.5 µM (inactive)
[52]
  GI50: 18.6 µM (inactive)
[53]
  GI50: 1.65 µM (inactive)
[54]
  GI50: 3.15 µM (inactive)
[55]
  GI50: > 24.9 µM (inactive)
[56]
  GI50: 57.4 µM (inactive)
[57]
  GI50: 3.3 µM (inactive)
[58]
  GI50: 0.199 µM (active)
[59]
  GI50: 2.39 µM (inactive)
